From PubChem BioAssay (NCI)
Values joined by “and” are separate entries in the source; they are usually repeats but may differ in a detail not shown here. Equal values may be shown once.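 How tested: cells in 96-well plates exposed to compound for 48 hours at five concentrations. GI50 = concentration required for 50% inhibition of growth. TGI marks complete inhibition of growth.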

Key:
Assay in all cases: NCI tumour cell line growth inhibition, 48 h
[1] = test system: HCT-116 colon
[2] = test system: NCI/ADR-RES ovarian
[3] = test system: MDA-N
[4] = test system: OVCAR-8 ovarian
[5] = test system: OVCAR-5 ovarian
[6] = test system: NCI-H460 lung
[7] = test system: HOP-18 NSCLC
[8] = test system: OVCAR-3 ovarian
[9] = test system: DMS 273 small cell lung
[10] = test system: SNB-19 CNS
[11] = test system: UO-31 renal
[12] = test system: TK-10 renal
[13] = test system: SN12C renal
[14] = test system: KM12 colon
[15] = test system: CCRF-CEM leukemia
[16] = test system: P388 leukemia
[17] = test system: NCI-H522 lung
[18] = test system: A549 NSCLC
[19] = test system: M14 melanoma
[20] = test system: U251 CNS
[21] = test system: IGROV1 ovarian
[22] = test system: UACC-62 melanoma
[23] = test system: SF-268 CNS
[24] = test system: MDA-MB-231 breast
[25] = test system: SK-MEL-2 melanoma
[26] = test system: SK-MEL-28 melanoma
[27] = test system: K-562 leukemia
[28] = test system: SNB-75 CNS
[29] = test system: MDA-MB-435
[30] = test system: SW-620 colon
[31] = test system: HCT-15 colon
[32] = test system: SF-539 CNS
[33] = test system: T-47D breast
[34] = test system: SF-295 CNS
[35] = test system: SK-MEL-5 melanoma
[36] = test system: HOP-92 NSCLC
[37] = test system: EKVX NSCLC
[38] = test system: RXF 393 renal
[39] = test system: HL-60(TB) leukemia
[40] = test system: OVCAR-4 ovarian
[41] = test system: A498 renal
[42] = test system: 786-0 renal
[43] = test system: SNB-78 CNS
[44] = test system: RPMI-8226 leukemia
[45] = test system: MALME-3M melanoma
[46] = test system: CAKI-1 renal
[47] = test system: MOLT-4 leukemia
[48] = test system: KM20L2 colon
[49] = test system: SR leukemia
[50] = test system: M19-MEL melanoma
[51] = test system: PC-3 prostate
[52] = test system: COLO 205 colon
[53] = test system: SK-OV-3 ovarian
[54] = test system: MCF7 breast

In the case of C/C(=C\COc1ccc2ccc(=O)oc2c1)C1=CC(=O)C(C)(C)O1, the GI50 [1] is reported as 2.84 µM, the TGI [1] is reported as 7.57 µM and 6.64 µM and the GI50 [2] is reported as 3.81 µM. The TGI [2] was > 100 µM and 35.6 µM, the TGI [3] was 16 µM and the GI50 [4] was 2.18 µM. For the same compound, the GI50 [5] was 3.19 µM, the TGI [5] was 10.8 µM and 20.9 µM and the GI50 [6] was 2.61 µM and 4.07 µM. For the same compound, the TGI [6] was 6.29 µM and 11.5 µM, the TGI [7] was 80.5 µM and the GI50 [8] was 2.44 µM. For the same compound, the TGI [8] was 5.55 µM and 9.43 µM, the TGI [9] was 27.9 µM and the GI50 [10] was 2.94 µM. For the same compound, the TGI [10] was 8.22 µM and 30.5 µM, the GI50 [11] was 3.83 µM and the TGI [11] was 14.7 µM and 14 µM. The TGI [12] was 16.7 µM, the GI50 [13] was 3.34 µM and the TGI [13] was 14.1 µM and 10.8 µM. For the same compound, the GI50 [14] was 2.66 µM and 2.35 µM, the TGI [14] was 9.77 µM and 8.59 µM and the GI50 [15] was 2.28 µM. For the same compound, the TGI [15] was 7.11 µM and 21.4 µM, the TGI [16] was 8.39 µM and the GI50 [17] was 2.37 µM and 0.804 µM. The TGI [17] was 7.73 µM and 3.76 µM, the GI50 [18] was 4.18 µM and the TGI [18] was 47.2 µM and 51.9 µM. The TGI [19] was 16.3 µM, the GI50 [20] was 2.7 µM and the TGI [20] was 10.1 µM and 8.61 µM. The GI50 [21] was 2.73 µM, the TGI [21] was 9.02 µM and 22.1 µM and the GI50 [22] was 2.3 µM. The TGI [22] was 6.43 µM and 10.5 µM, the GI50 [23] was 4.74 µM and the TGI [23] was 14.9 µM and 14.3 µM. For the same compound, the TGI [24] was 22.9 µM, the GI50 [25] was 4.19 µM and the TGI [25] was 23.2 µM and 15.1 µM. For the same compound, the GI50 [26] was 4.82 µM, the TGI [26] was 18.3 µM and 10.1 µM and the GI50 [27] was 1.85 µM. For the same compound, the GI50 [28] was 3.55 µM, the TGI [28] was 14.6 µM and 15.4 µM and the TGI [29] was 13.2 µM. For the same compound, the GI50 [30] was 2.27 µM, the TGI [30] was 5.58 µM and 14.7 µM and the TGI [31] was 15.9 µM and 19.4 µM. The TGI [32] was 4.88 µM and 8.64 µM, the TGI [33] was 30.6 µM and the GI50 [34] was 4.3 µM. The TGI [34] was 20.4 µM and 8.41 µM, the GI50 [35] was 2.72 µM and the TGI [35] was 13.3 µM and 6.95 µM. For the same compound, the GI50 [36] was 2.38 µM, the TGI [36] was 7.24 µM and 9.92 µM and the GI50 [37] was 4.9 µM. The TGI [37] was 28.2 µM and 30.6 µM, the GI50 [38] was 2.39 µM and the TGI [38] was 12.2 µM and 5.61 µM. For the same compound, the GI50 [39] was 1.76 µM, the TGI [39] was 5.09 µM and 16.9 µM and the GI50 [40] was 4.3 µM. The TGI [40] was 24.8 µM and 7.56 µM, the GI50 [41] was 2.79 µM and the TGI [41] was 7.32 µM and 9.56 µM. For the same compound, the TGI [42] was 12.9 µM, the TGI [43] was 61.3 µM and the TGI [44] was 6.2 µM and 15.7 µM. The TGI [45] was 25.6 µM and 14.8 µM, the GI50 [46] was 3.77 µM and the TGI [46] was 14.6 µM and 19.8 µM. The GI50 [47] was 3.25 µM, the TGI [47] was 15 µM and 20.2 µM and the TGI [48] was 8.53 µM. It also gave a TGI [49] of 4.92 µM, a TGI [50] of 14.6 µM and a TGI [51] of 23.3 µM. The GI50 [52] was 2.73 µM, the TGI [52] was 6.64 µM and 8.96 µM and the GI50 [53] was 3.06 µM. The TGI [53] was 8.72 µM and 34.1 µM, the GI50 [54] was 2.35 µM and 1.09 µM and the TGI [54] was 12.9 µM and 5.4 µM.
